3 compounds from patent publication US9295754B2, “Noggin inhibitory compositions for ossification and methods related thereto” (Emory University, priority 2011, dated 2016) can be followed below.

Positions count from the first letter of the chain named.

The subject of one test is bone growth. Kind of test: Collagen disc implantation with Noggin-blockers and BMP-2 in rat ectopic model. The format is in vivo, Harlan athymic rats. Conditions: for Average / Results: 100ul, collagen carrier, chest implant, 4 weeks. From the text: Harlan athymic rats about 5-6 weeks of age were chest implanted with a collegan disc and doses of N50 in combination with BMP-2. After 4 weeks the rats were sacrificed and evaluated for bone growth.

The target in a further test is T1, Noggin (Homo sapiens, UniProt Q13253).
T1 construct: host or cells: added to mouse C2C12 cells
T1 sequence (Q13253 28-232): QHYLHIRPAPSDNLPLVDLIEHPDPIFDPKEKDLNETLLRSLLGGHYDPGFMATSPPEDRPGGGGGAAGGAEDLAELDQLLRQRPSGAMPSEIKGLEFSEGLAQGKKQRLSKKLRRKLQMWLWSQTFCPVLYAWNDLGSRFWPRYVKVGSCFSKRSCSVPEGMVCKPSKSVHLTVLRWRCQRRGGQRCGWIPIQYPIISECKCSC
Briefly: in vitro cell-based screening assays (luciferase reporter and ALP assays in C2C12 cells). Conditions: BMP-2 +/- Noggin, FIG. 2-5. As for the experimental part: The known crystals structures of complexes of BMP-2/BMPR-IA, BMP7/Noggin and BMP-2/BMPR-IA/ActR-II and BMPR-II monomer structures were analyzed. Using these structures ternary complexes of BMP-2/BMPR-IA/BMPR-II and BMP-2/Noggin (from BMP7/Noggin) were modeled. Solvent accessibility of complexes and the monomers were computed to identify exact binding regions and the individual residues involved in binding. The entire 430 Å^2 surface area of Noggin that binds to BMP-2 and thus block binding of BMP to BMPR-IA and BMPR-II binding regions were analyzed. Complementary regions in BMP were also evaluated in extensive virtual screenings using LUDI docking procedures using CAP commercially available molecular databases.
Mouse C2C12 cells and Dulbecco's modified Eagle's medium (DMEM) were purchased from ATCC (Manassas, Va.). […] When the flasks reached 80% confluence, the cells were trypsinized and seeded in triplicate at 200,000 cells/well in a 6-well plate for quantitative real-time RT-PCR and alkaline phosphatase (ALP) assays or at 50,000 cells/well in a 12-well plate for the dual-luciferase reporter assay.
The C2C12 cells were plated at 200,000 cells/well in 6-well plates and grown overnight in DMEM containing 10% FBS. […] The ALP activity was measured in triplicate using an ALP assay kit (Sigma-Aldrich, St. Louis, Mo.) in microtiter plates. […]
For orientation: Reporter assays use an easily measured gene product as a stand-in for the process of interest.

For test [1], the system named is fetal rat calvarial osteoblast primary cell cultures. Briefly: BMP-induced bone nodules in fetal rat calvarial osteoblast primary cell cultures. The format is cell-based. Conditions: FIG. 6.
For a further test, the target named is T2, endogenous Noggin (Mus musculus, UniProt P97466).
T2 construct: in the absence of exogenously added Noggin in C2C12 cells; endogenous in cells; host or cells: mouse C2C12 cells (ATCC)
T2 sequence (P97466 28-232): T1 sequence (Q13253 28-232) with A67P
Briefly: BMP-induced ALP activity in C2C12 cells without exogenously added Noggin. The format is cell-based. Particulars: absence of exogenously added Noggin, FIG. 8. As for the experimental part:
Mouse C2C12 cells and Dulbecco's modified Eagle's medium (DMEM) were purchased from ATCC (Manassas, Va.). The non-heat inactivated fetal bovine serum (FBS) was purchased from HyClone Laboratories, Inc. (Logan, Utah). The C2C12 cells at passages 4 to 7 were subcultured in T-75 cm2 flasks in DMEM supplemented with 10% FBS at 37° C. in 5% CO2 with humidification. When the flasks reached 80% confluence, the cells were trypsinized and seeded in triplicate at 200,000 cells/well in a 6-well plate for quantitative real-time RT-PCR and alkaline phosphatase (ALP) assays or at 50,000 cells/well in a 12-well plate for the dual-luciferase reporter assay.
The C2C12 cells were plated at 200,000 cells/well in 6-well plates and grown overnight in DMEM containing 10% FBS. On day 2, the culture medium was replaced with DMEM containing 2% FBS and the cells were treated with 100 ng/ml of BMP-2, +/−various concentrations of the Noggin-interacting compound, and +/−100 ng/ml of Noggin for 72 hours. […] The ALP activity was measured in triplicate using an ALP assay kit (Sigma-Aldrich, St. Louis, Mo.) in microtiter plates. The protein amount was determined with Bio-Rad protein assay reagent (Bio-Rad, Hercules, Calif.) using bovine serum albumin (BSA) as a standard. […]

Consider `N#CC(=Cc1cccc(Cl)c1)c1ccccn1` (racemic) [N50, 3-(3-chlorophenyl)-2-(pyridin-2-yl)acrylonitrile], for which the Average with bone growth (N50 4 mM + BMP-2 1.5 ug) is listed as 3; in the test on bone growth (N50 4 mM + BMP-2 5 ug), 4.25; in the test with bone growth (N50 8 mM + BMP-2 1.5 ug), 1.75; in the test on bone growth (N50 8 mM + BMP-2 5 ug), 3.25; in the test with bone growth (N50 12 mM + BMP-2 1.5 ug) it was 3.5; in the test with bone growth (N50 12 mM + BMP-2 5 ug), 4.75. For the same compound, the Results result is reported as “Bone made (4 of 4)” in the test with bone growth (N50 4 mM + BMP-2 1.5 ug); “Bone made (4 of 4)” in the test on bone growth (N50 4 mM + BMP-2 5 ug); “Bone made (2 of 4)” in the test on bone growth (N50 8 mM + BMP-2 1.5 ug); “Bone made (3 of 4)” with bone growth (N50 8 mM + BMP-2 5 ug); “Bone made (4 of 4)” with bone growth (N50 12 mM + BMP-2 1.5 ug); “Bone made (4 of 4)” in the test on bone growth (N50 12 mM + BMP-2 5 ug). Further, the bone growth result with bone growth (N50 in combination with BMP-2, after 4 weeks, certain doses) is “Certain doses showed improvement”. Further, the Noggin blocking result at Noggin was “confirmed Noggin blockers”. Also, the BMP-induced bone nodules result in test [1] is “potentiation of BMP-induced bone nodules”.
As for `Cc1cc(C)nc(NC(=O)c2sc3ccccc3c2Cl)c1` [N2, 3-chloro-N-(4,6-dimethylpyridin-2-yl)benzo[b]thiophene-2-carboxamide], the Noggin blocking entry at Noggin was “confirmed Noggin blockers”.
On to `Cc1ccc(C(C#N)=Cc2cccc([N+](=O)[O-])c2)cc1` [N50-083, 3-(3-nitrophenyl)-2-(p-tolyl)acrylonitrile], for which the “function of endogenous Noggin / BMP-induced ALP activity” value at endogenous Noggin is recorded as “blocks function of endogenous Noggin by potentiating BMP-induced ALP activity”.
